In patent US11746100B2 (GLOBAL BLOOD THERAPEUTICS, INC., priority 2020, dated 2023) one finds pEC50 data, which are given here for 22 compounds.

This experiment has as its target T1, human ferroportin (Homo sapiens, UniProt Q9NP59).
T1 construct: luciferase reporter (read with the Nano-Glo Luciferase Assay System); expressed in transfected cells; host or cells: CHO cells, stably transfected, expression induced with doxycycline
T1 sequence (Q9NP59 1-571): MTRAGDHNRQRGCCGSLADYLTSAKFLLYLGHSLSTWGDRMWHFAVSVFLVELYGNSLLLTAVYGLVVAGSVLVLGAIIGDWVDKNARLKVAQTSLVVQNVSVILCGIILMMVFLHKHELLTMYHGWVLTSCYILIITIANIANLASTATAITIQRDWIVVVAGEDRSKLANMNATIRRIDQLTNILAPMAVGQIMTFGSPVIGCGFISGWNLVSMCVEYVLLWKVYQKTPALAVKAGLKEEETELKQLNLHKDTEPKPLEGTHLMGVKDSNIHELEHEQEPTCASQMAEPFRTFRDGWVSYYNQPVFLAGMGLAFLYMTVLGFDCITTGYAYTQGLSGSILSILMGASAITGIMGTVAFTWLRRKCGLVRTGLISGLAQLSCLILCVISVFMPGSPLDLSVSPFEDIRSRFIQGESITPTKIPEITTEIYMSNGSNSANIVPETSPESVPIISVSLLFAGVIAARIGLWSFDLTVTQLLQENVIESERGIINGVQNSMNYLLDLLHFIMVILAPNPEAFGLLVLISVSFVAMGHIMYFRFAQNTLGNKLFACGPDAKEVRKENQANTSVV
As to the kind of experiment: Biological in-vitro ferroportin internalization assay (luciferase reporter). The settings on record: average pEC50; stably-transfected CHO cell line expressing human ferroportin tagged to a luciferase reporter; 6 h incubation with test compound. The format is cell-based. An outline of the steps: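 Read-out is Nano-Glo luciferase signal after 6 h compound exposure, with average pEC50 derived. Cells are a stable CHO line carrying luciferase-tagged human ferroportin, pre-loaded 24 h with ferric ammonium citrate and doxycycline-induced for 24 h.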
A general note: A reporter such as luciferase makes a cellular process visible.
Usually pEC50 stands for the EC50 on a negative log10 scale, so that one unit is a factor of ten. Low values mean a high EC50, high ones a low EC50. For the compound `COc1ccc(NC(=O)CN(C)c2nc(-c3cc(OCC(C)(C)O)ccn3)nc3c2CCC3)cn1` [Compound 210, 2-({2-[4-(2-hydroxy-2-methylpropoxy)pyridin-2-yl]-5H,6H,7H-cyclopenta[d]pyrimidin-4-yl}(methyl)amino)-N-(6-methoxypyridin-3-yl)acetamide], the pEC50 was determined as 7.9.
The same measure for `CN(CC(=O)Nc1cnn(C)c1)c1nc(-c2cc(OCCF)ccn2)nc2c1CCC2` [Compound 243, 2-({2-[4-(2-fluoroethoxy)pyridin-2-yl]-5H,6H,7H-cyclopenta[d]pyrimidin-4-yl}(methyl)amino)-N-(1-methyl-1H-pyrazol-4-yl)acetamide]: 7.4.
The same measure for `Cc1ccc(NC(=O)[C@@H](C)N(C)c2nc(-c3cc(OCCO)ccn3)nc3c2CCC3)cn1` [Compound 316, (2R)-2-({2-[4-(2-hydroxyethoxy)pyridin-2-yl]-5H,6H,7H-cyclopenta[d]pyrimidin-4-yl}(methyl)amino)-N-(6-methylpyridin-3-yl)propanamide]: 7.8; for `CN(CC(=O)NCC(F)(F)F)c1nc(-c2cc(OCC(C)(C)O)ccn2)nc2c1CCC2` [Compound 479, 2-({2-[4-(2-hydroxy-2-methylpropoxy)pyridin-2-yl]-5H,6H,7H-cyclopenta[d]pyrimidin-4-yl}(methyl)amino)-N-(2,2,2-trifluoroethyl)acetamide]: 7.9.
As for `CCOc1ccnc(-c2nc3c(c(N(C)CC(=O)NC(C)(C)C)n2)CCC3)c1` [Compound 467, N-tert-butyl-2-{[2-(4-ethoxypyridin-2-yl)-5H,6H,7H-cyclopenta[d]pyrimidin-4-yl](methyl)amino}acetamide], the pEC50 was determined as 8.3.
Regarding `CC(C(=O)NC(C)(C)C)N(c1ccccc1)c1nc(-c2ccccn2)nc2c1CCC2` (stereo not shown) [Compound 20, N-tert-butyl-2-{phenyl[2-(pyridin-2-yl)-5H,6H,7H-cyclopenta[d]pyrimidin-4-yl]amino}propanamide], the pEC50 worked out at 6.7.
Take `CN(CC(=O)N1CCCCC1)c1nc(-c2ccccn2)nc2c1CCC2` [Compound 88, 2-{methyl[2-(pyridin-2-yl)-5H,6H,7H-cyclopenta[d]pyrimidin-4-yl]amino}-1-(piperidin-1-yl)ethan-1-one]: the pEC50 worked out at 7.1.
Take `COCCOc1ccnc(-c2nc3c(c(N(C)CC(=O)Nc4ccc(OC)nc4)n2)CCC3)c1` [Compound 238, 2-({2-[4-(2-methoxyethoxy)pyridin-2-yl]-5H,6H,7H-cyclopenta[d]pyrimidin-4-yl}(methyl)amino)-N-(6-methoxypyridin-3-yl)acetamide]: the negative-log EC50 (pEC50) came to 7.5.
Take `CN(CC(=O)NC(C)(C)C)c1nc(-c2cc(OC[C@H]3CCCN3C)ccn2)nc2c1CCC2` [Compound 411, N-tert-butyl-2-{methyl[2-(4-{[(2R)-1-methylpyrrolidin-2-yl]methoxy}pyridin-2-yl)-5H,6H,7H-cyclopenta[d]pyrimidin-4-yl]amino}acetamide]: the pEC50 stood at 8.2.
Compound `CN(c1nc(-c2ccccn2)nc2c1CCC2)C1CCN(c2ccccc2)C1=O` (stereo not shown) [Compound 95, 3-{methyl[2-(pyridin-2-yl)-5H,6H,7H-cyclopenta[d]pyrimidin-4-yl]amino}-1-phenylpyrrolidin-2-one] returned a pEC50 of 7.3.
On to `Cc1ccc(NC(=O)CN(C)c2nc(-c3cc(OCCO)ccn3)nc3c2C(C)(C)CC3)cn1` [Compound 331, 2-({2-[4-(2-hydroxyethoxy)pyridin-2-yl]-5,5-dimethyl-5H,6H,7H-cyclopenta[d]pyrimidin-4-yl}(methyl)amino)-N-(6-methylpyridin-3-yl)acetamide], for which the pEC50 came out at 8.3.
Compound `COc1ccc(NC(=O)CN(C)c2nc(-c3cc4ccccc4cn3)nc3c2CCC3)nc1` [Compound 233, 2-{[2-(isoquinolin-3-yl)-5H,6H,7H-cyclopenta[d]pyrimidin-4-yl](methyl)amino}-N-(5-methoxypyridin-2-yl)acetamide] yielded a pEC50 of 7.4.
With `CSCC[C@@H](C(=O)NC(C)(C)C)N(C)c1nc(-c2ccccn2)nc2c1CCC2` [Compound 117], the pEC50 was found to be 6.9.
For the compound `COc1ccnc(-c2nc3c(c(N(C)CC(=O)Nc4ccn(C)c(=O)c4)n2)CCC3)c1` [Compound 287, 2-{[2-(4-methoxypyridin-2-yl)-5H,6H,7H-cyclopenta[d]pyrimidin-4-yl](methyl)amino}-N-(1-methyl-2-oxo-1,2-dihydropyridin-4-yl)acetamide], the pEC50 is reported as 7.2.
In turn, `COc1ccc(NC(=O)CN(C)c2nc(-c3ccccn3)nc3c2CCC3)cc1` [Compound 75, N-(4-methoxyphenyl)-2-{methyl[2-(pyridin-2-yl)-5H,6H,7H-cyclopenta[d]pyrimidin-4-yl]amino}acetamide] had a pEC50 of 7.5.
As for `CN(c1nc(-c2ccccn2)nc2c1CCC2)[C@@H]1CCN(c2ccccc2)C1=O` [Compound 130, (3R)-3-{methyl[2-(pyridin-2-yl)-5H,6H,7H-cyclopenta[d]pyrimidin-4-yl]amino}-1-phenylpyrrolidin-2-one], the pEC50 is 6.9.
In turn, `CN(C)CCOc1ccnc(-c2nc3c(c(N(C)CC(=O)NC(C)(C)C)n2)CC(C)(C)C3)c1` [Compound 454, N-tert-butyl-2-[(2-{4-[2-(dimethylamino)ethoxy]pyridin-2-yl}-6,6-dimethyl-5H,6H,7H-cyclopenta[d]pyrimidin-4-yl)(methyl)amino]acetamide] displayed a pEC50 of 7.9.
With `CN1CCC(NC(=O)CN(C)c2nc(-c3ccccn3)nc3c2CCC3)C1=O` (stereo not shown) [Compound 31, N-(1-methyl-2-oxopyrrolidin-3-yl)-2-{methyl[2-(pyridin-2-yl)-5H,6H,7H-cyclopenta[d]pyrimidin-4-yl]amino}acetamide], the pEC50 is recorded as 6.2.
To `CN(CC(=O)NC12CC(C1)C2)c1nc(-c2cc(OC3COC3)ccn2)nc2c1CCC2` [Compound 340, N-{bicyclo[1.1.1]pentan-1-yl}-2-[methyl({2-[4-(oxetan-3-yloxy)pyridin-2-yl]-5H,6H,7H-cyclopenta[d]pyrimidin-4-yl})amino]acetamide] belongs 7.7; to `O=C(CNc1nc(-c2ccccn2)nc2c1CCC2)Nc1ccccn1` [Compound 5, N-(pyridin-2-yl)-2-{[2-(pyridin-2-yl)-5H,6H,7H-cyclopenta[d]pyrimidin-4-yl]amino}acetamide], 6.2.
`CO[C@H]1CCN(CCOc2ccnc(-c3nc4c(c(N(C)CC(=O)NC(C)(C)C)n3)CCC4)c2)C1` [Compound 464, N-tert-butyl-2-{[2-(4-{2-[(3S)-3-methoxypyrrolidin-1-yl]ethoxy}pyridin-2-yl)-5H,6H,7H-cyclopenta[d]pyrimidin-4-yl](methyl)amino}acetamide]: the pEC50 is given as 8.0.
`C[C@H](C(=O)Nc1cccc(F)c1)N(C)c1nc(-c2cn(C)cn2)nc2c1CCC2` [Compound 277, (2R)—N-(3-fluorophenyl)-2-{methyl[2-(1-methyl-1H-imidazol-4-yl)-5H,6H,7H-cyclopenta[d]pyrimidin-4-yl]amino}propanamide] returned a pEC50 of 8.2.
